The subject of series [1] is homologous passive cutaneous anaphylaxis (antigen-antibody reaction). The series is described as follows: Homologous Passive Cutaneous Anaphylaxis in Rats. Format: in vivo, rat (Wistar male). The following applies: 200 mg/kg orally 2 hours prior to the injection of antigen; for inhibition at 200 mg/kg: Rattus norvegicus, po. The protocol:
Wistar male rats weighing 120-150 g were used in this experiment. […]. Normal rats were sensitized passively with dilution of the antibody by means of intradermal injection. After 48 hours of the sensitization, the mixture of antigen (EA) and evens blue was injected intravenously. The animals were killed by a blow on the head 30 minutes after the injection, and then the blue spot resulted from the antigen-antibody reaction was measured photometrically.
A given test compound dissolved in 1 % NaHCO3 solution was administrated in a dose of 200 mg/kg orally 2 hours prior to the injection of antigen, while only the vehicle solution was administered to the control group.
The efficacy of the test compounds to inhibit the homologous passive cutaneous anaphlaxis was compared with the value (%) calculated using the following formula: [formula] wherein A stands for the amount of leaked dye in control group and B for the amount of leaked dye in the group administered with a given test compound.

The test system of a further series is mast cells. The following applies: known art; cited from earlier work.
Series [2] concerns sensitized mesenteric mast cells. The series is described as follows: Effect on the Disruption of the Sensitized Mast Cells. Format: cell-based, rat. The conditions noted are these: 10^-5 g/ml, 5 minutes prior to the treatment of antigen. As for the experimental part: Mesenteric mast cells isolated from normal rats were sensitized passively by means of incubation with rat reaginic antibody at 37° C. After termination of the incubation, the specific antigen (DNP-Ascaris) was added to the incubation medium, then these mast cells in mesentery were fixed with formalin and stained with 0.1 % toluidine blue (in acetic acid buffer; pH: 4.6). The number of mast cells disrupted as a consequence of the antigen-antibody reaction were counted under a microscope. The number of the mast cells disrupted were also counted without the addition of the specific antigen.
A given test compound dissolved in 1 % NaHCO3 solution was added to the incubation medium at a concentration of 10^-5 g/ml, 5 minutes prior to the treatment of antigen, while only the vehicle was added to the control group.
The efficacy of the test compounds to inhibit the mast cell disruption was compared with the value (%) calculated using the following formula: [formula] wherein P stands for the percentage of disrupted mast cells in the control group, Q for the percentage of mast cells disrupted spontaneously and R for the percentage of disrupted mast cells in the group treated with a given test compound.

Series [3] is described as follows: Acute Toxicity (LD50) in mice. The following applies: mouse, in vivo, po, mortality on the 8th day. Format: in vivo. The protocol:
The median lethal dose (LD50) of the new aromatic carboxylic acid amide derivatives of this invention were determined in dd-stain male and female mice (6 weeks old) by oral administration and in Wistar strain male and female rats (7 weeks old) by oral and intraperitoneal administration. Each animal selected for the experiment was maintained in an air conditioned room at a temperature of 22° ± 1° C and a relative humidity of 55 ± 5% during the full course of the experiment. All animals were fed compressed pellets (CE-2 type produced by Japan CLEA Co.) and water was available ad libitum by bottle. Five groups of ten animals for each administration route were used.
Since these compounds were isoluble in water, they were suspended in a 0.5% aqueous solution of carboxymethylcellulose at each dosage level. The administrative volume of each agent to 10 g body weight mouse was 0.2 ml for oral administration, while that to 100g body weight of rat was 0.5 ml for intraperitoneal and oral administrations.
The LD50 values were calculated from the mortality on the 8th day by the Litchfield-Wilcoxon's method.

The test system of series [4] is antiallergic action, oral administration to mammalia. Nature of the series: Antiallergic action (general statements). The class given is in vivo. The conditions noted are these: general statement.

Broadly, the inhibition is the relative decrease from the control value, in per cent. Read a low inhibition as a weak effect. As for `O=C(C=Cc1ccccc1)Nc1cccc(C(=O)O)c1` [3-(cinnamoylamino)-benzoic acid, reference compound], the inhibition at 200 mg/kg in series [1] is 10%.
With `O=C(C=Cc1ccccc1)Nc1ccc(C(=O)O)cc1` [4-(cinnamoylamino)-benzoic acid, reference compound], the inhibition at 200 mg/kg in series [1] was determined as 7%.
`OCC(O)COc1ccc(Cl)cc1` (stereo not drawn) [Chlorphenesin, reference compound] displayed an inhibition at 200 mg/kg in series [1] of 36.7%. In the series on mast cells, the “inhibition of mast cell disruption (in words)” value was “inhibitor of mast cell disruption”.
In series [1], `COc1ccc(C(C)=CC(=O)Nc2ccccc2C(=O)O)cc1OC` [N-(3',4'-dimethoxy-β-methylcinnamoyl)-anthranilic acid] yielded an inhibition at 200 mg/kg of 66.2%. In addition, in series [2], the “Inhibition percentage (mast cell disruption)” value (shortened to “Inhibition percentage”) was 45%.
As usually defined, the LD50 is the dose expected to kill half of the subjects tested. For `O=C(C=Cc1cccc(Cl)c1)Nc1ccccc1C(=O)O` [N-(3'-chlorocinnamoyl)-anthranilic acid], the LD50 at 192 h in series [3] is 700 mg/kg.
`COc1cc(C=CC(=O)Nc2ccccc2C(=O)O)ccc1OCC(=O)O` [N-(3'-methoxy-4'-carboxylmethoxycinnamoyl)-anthranilic acid, reference compound] displayed an inhibition at 200 mg/kg in series [1] of 0%.
Still for that read-out and setting: then `COc1cc(C=CC(=O)Nc2ccccc2C(=O)O)ccc1OCC(O)CO` (stereo not drawn) [N-[3'-methoxy-4'-(2,3-dihydroxypropoxy)-cinnamoyl]-anthranilic acid, reference compound], with 9%; and `O=C(C=Cc1ccccc1)Nc1ccccc1C(=O)O` [N-cinnamoyl-anthranilic acid, reference compound], with 16.7%.
The same measure, in the same setting: then `O=C(C=Cc1ccc(O)cc1)Nc1ccccc1C(=O)O` [compound 1, N-(4'-hydroxycinnamoyl)-anthranilic acid], with 36.7%; and `COc1cccc(C=CC(=O)Nc2ccc(C(=O)O)cc2)c1O` [compound 6, 4-(2'-hydroxy-3'-methoxycinnamoylamino)-benzoic acid], with 33.5%.
`COc1cccc(C=CC(=O)Nc2cccc(C(=O)O)c2)c1` [compound 15, 3-(3'-methoxycinnamoylamino)-benzoic acid] came in with an inhibition at 200 mg/kg in series [1] of 45%. Also, in series [2], the “Inhibition percentage” value came to 18%.
Compound `O=C(C=Cc1ccc(Cl)cc1)Nc1ccccc1C(=O)O` [compound 20, N-(4'-chlorocinnamoyl)-anthranilic acid] displayed an inhibition at 200 mg/kg in series [1] of 69.4%. Further, the LD50 at 192 h in series [3] was 551 mg/kg.
Compound `O=C(C=Cc1ccccc1Cl)Nc1ccccc1C(=O)O` [compound 22, N-(2'-chlorocinnamoyl)-anthranilic acid] displayed an inhibition at 200 mg/kg in series [1] of 60.2%. Besides, in series [3], the LD50 at 192 h was found to be 343 mg/kg.
In turn, `O=C(C=Cc1ccc(F)cc1)Nc1ccccc1C(=O)O` [compound 28, N-(4'-fluorocinnamoyl)-anthranilic acid] showed a median lethal dose (LD50) at 192 h in series [3] of 481 mg/kg.
For the compound `O=C(C=Cc1cccc(F)c1)Nc1ccccc1C(=O)O` [compound 29, N-(3'-fluorocinnamoyl)-anthranilic acid], the inhibition at 200 mg/kg in series [1] is 47.5%. For the same compound, the LD50 at 192 h in series [3] came out at 551 mg/kg.
Regarding `O=C(C=Cc1ccccc1F)Nc1ccccc1C(=O)O` [compound 30, N-(2'-fluorocinnamoyl)-anthranilic acid], the LD50 at 192 h in series [3] worked out at 321 mg/kg.
`COc1cccc(C=CC(=O)Nc2ccccc2C(=O)O)c1OC` [compound 31, N-(2',3'-dimethoxycinnamoyl)-anthranilic acid] had an inhibition at 200 mg/kg in series [1] of 56.8%.
On the same count and under the same terms, then `Cc1ccc(C=CC(=O)Nc2ccccc2C(=O)O)cc1` [compound 42, N-(4'-methylcinnamoyl)-anthracilic acid], with 54%; and `COc1cc(OC)c(OC)cc1C=CC(=O)Nc1ccccc1C(=O)O` [compound 52, N-(2',4',5'-trimethoxycinnamoyl)-anthranilic acid], with 56.8%.
For the compound `CCCOc1ccc(C=CC(=O)Nc2ccccc2C(=O)O)cc1OC` [compound 54, N-(3'-methoxy-4'-n-propoxycinnamoyl)-anthranilic acid], the inhibition at 200 mg/kg in series [1] stood at 52.2%. In series [2], the “Inhibition percentage” value was determined as 37%.
With `COc1cc(C=CC(=O)Nc2ccccc2C(=O)O)ccc1OC(C)C` [compound 56, N-(3'-methoxy-4'-isopropoxycinnamoyl)-anthranilic acid], in series [1], 200 mg/kg produced 47.1% inhibition.
For `COc1cccc(C=CC(=O)Nc2cccc(C(=O)O)c2)c1OC` [compound 60, 3-(2',3'-dimethoxycinnamoylamino)-benzoic acid], testing at 200 mg/kg in series [1] gave an inhibition of 41.1%.
Still for that read-out and setting: to `COc1ccc(CCC(=O)Nc2ccccc2C(=O)O)cc1OC` [compound 67, N-(3',4'-dimethoxylhydrocinnamoyl)-anthranilic acid] belongs 55.4%.
Take “Methylenedioxycinnamoylaminobenzoic acid”: the “antiallergic action / pharmacological activity (in words)” value in series [4] is “strong antiallergic action”.
Turning to N-(4'-bromocinnamoylamino)-benzoic acid, the “Inhibition (%)” value in series [1] turned out to be 32.3%.
Take “cinnamoylaminobenzoic acid [reference compound]”: in series [4], the “antiallergic action / pharmacological activity (in words)” value is “only very weak antiallergic effect”.
